Experimental data reported in US8633186B2, “Modulation of chemosensory receptors and ligands associated therewith” (Senomyx Inc., priority 2007, dated 2014).

Key:
[1] = system: human panelists (perceived sweetness intensity); experiment: Sweet flavor and sweet flavor enhancement, human panelists, scaling test; format: in vivo; parameters: key: 0-15 line scale; 0 = no sweetness, 15 = 15% sucrose sweetness
From the text: Test samples containing experimental compounds were compared to a dose-response curve for perceived sweetness intensity of sweeteners (such as, for example, sucralose, sucrose, fructose and other sweeteners) concentrations to determine equivalent sweetness intensity.
A group of eight or more panelists tasted solutions including sweeteners at various concentrations, as well as the experimental compound both with and without added sweetener. Panelists then rated sweetness intensity of all samples on a structured horizontal line scale, anchored from 0 to 15, where 0 equals no sweetness and 15 equals equivalent sweetness to a 15% sucrose sample. Scores for sweetness intensity were averaged across panelists. Then using the average scores and/or equation of the line for the sweetener dose-response curve, equivalent sweetness concentrations were determined for the samples containing experimental compounds.
Subjects had been previously familiarized with the key attribute taste and were trained to use the 0 to 15 point line scale. Subjects refrained from eating or drinking (except water) for at least 1 hour prior to the test. Subjects ate a cracker and rinsed with water several times to clean the mouth.
Sweetener solutions are provided at a wide range of concentrations such as 100 ppm, 200 ppm, 300 ppm, 400 ppm, and 500 ppm for sucralose, or between 0% and 12% for sucrose or fructose, in order to create a dose-response curve. Samples containing experimental compound were prepared both alone and in a 100 ppm sucralose solution or a 6% sucrose or fructose solution. All samples were made up in low sodium buffer pH 7.1. In order to aid dispersion, solutions can be made up in 0.1% ethanol.
The solutions were dispensed in 20 ml volumes into 1 oz. sample cups and served to the subjects at room temperature. All samples were presented in randomized counterbalanced order to reduce response bias. Further, two sessions of testing may be used to check panel precision.
Subjects tasted each sample individually and rate sweetness intensity on the line scale prior to tasting the next sample. All samples were expectorated. Subjects may retaste the samples but can only use the volume of sample given. Subjects must rinse with water between samples. Eating an unsalted cracker between samples may be required depending on the samples tasted.
The scores for each sample were averaged across subjects and standard error was calculated. The dose-response curve was plotted graphically, and this may be used to ensure the panel is rating accurately; i.e., increasing the concentration of sucralose should correspond to increased average scores for sweetness. A 2-way ANOVA (factors being samples and panelists) and multiple comparison tests (such as Tukey's Honestly Significant Difference test) can be used to determine differences among samples and/or panelists. A 3-way ANOVA, with sessions as the third factor, can be used to determine if there is any difference in the ratings between sessions.

Compound: Cc1sc2[nH]c(=O)nc(N)c2c1C.Cl
- melting point: > 260 °C

Compound: Cc1sc2[nH]c(=S)nc(N)c2c1C [Example 1, 4-Amino-5,6-dimethylthieno[2,3-d]pyrimidine-2(1H)-thione]
- melting point: > 260 °C

Compound: Cc1cccc2[nH]c(=S)nc(N)c12 [Example 3, 4-Amino-5-methylquinazoline-2(1H)-thione]
- melting point: > 250 °C

Compound: Nc1cc(=O)[nH]c2ccccc12 [Example 65, 4-Aminoquinolin-2(1H)-one]
- melting point: > 250 °C

Compound: Nc1c(C(=O)O)c(=O)[nH]c2ccccc12 [Example 66, 4-Amino-2-oxo-1,2-dihydroquinoline-3-carboxylic acid]
- melting point: > 250 °C

Compound: COC(=O)c1c(N)c2ccccc2[nH]c1=O [Example 68, Methyl 4-amino-2-oxo-1,2-dihydroquinoline-3-carboxylate]
- melting point: 236 °C

Compound: N#Cc1c(N)c2ccccc2[nH]c1=O [Example 71, 4-Amino-2-oxo-1,2-dihydroquinoline-3-carbonitrile]
- melting point: > 250 °C

Compound: N#Cc1c(Cl)c2ccccc2[nH]c1=O [Example 72, 4-chloro-2-oxo-1,2-dihydroquinoline-3-carbonitrile]
- melting point: > 250 °C

Compound: O=C(NC1CCCCC1)c1c(O)c2ccccc2[nH]c1=O [Example 73, N-cyclohexyl-4-hydroxy-2-oxo-1,2-dihydroquinoline-3-carboxamide]
- melting point: 221 °C

Compound: CCCOc1cccc2c1C(N)=NS(=O)(=O)N2 [Example 111, 4-Amino-5-(propyloxy)-1H-benzo[c][1,2,6]thiadiazine-2,2-dioxide]
- melting point: 229 to 230 °C

Compound: CC(C)=Cc1cccc2c1C(N)=NS(=O)(=O)N2 [Example 129, 4-Amino-5-(2-methylprop-1-enyl)-1H-benzo[c][1,2,3]thiadiazine-2,2-dioxide]
- melting point: > 260 °C

Compound: OC[C@H]1O[C@@](CO)(O[C@H]2O[C@H](CO)[C@@H](O)[C@H](O)[C@H]2O)[C@@H](O)[C@@H]1O [Sucrose, sucrose]
- Average sweetness score (line scale 0 to 15) ([1]; Table 5, 2% sucrose alone): 2.4
- Average sweetness score (line scale 0 to 15) ([1]; Table 7, 2% sucrose alone): 1.8
- Average sweetness score (line scale 0 to 15) ([1]; Table 8, 6% sucrose alone): 6.6
- Average sweetness score (line scale 0 to 15) ([1]; Table 8, 8% sucrose alone): 8.1
- Average sweetness score (line scale 0 to 15) ([1]; Table 8, 9% sucrose alone): 8.6
- Average sweetness score (line scale 0 to 15) ([1]; Table 8, 10% sucrose alone): 9.6
- Average sweetness score (line scale 0 to 15) ([1]; Table 9, 2% sucrose alone): 2.2
- Average sweetness score (line scale 0 to 15) ([1]; Table 9, 4% sucrose alone): 4.0
- Average sweetness score (line scale 0 to 15) ([1]; Table 9, 6% sucrose alone): 5.5
- Average sweetness score (line scale 0 to 15) ([1]; Table 10, 6% sucrose alone): 7.3
- Average sweetness score (line scale 0 to 15) ([1]; Table 10, 8% sucrose alone): 7.9
- Average sweetness score (line scale 0 to 15) ([1]; Table 10, 9% sucrose alone): 8.6
- Average sweetness score (line scale 0 to 15) ([1]; Table 10, 10% sucrose alone): 9.6
- Average sweetness score (line scale 0 to 15) ([1]; Table 11, 2% sucrose alone): 2.1
- Average sweetness score (line scale 0 to 15) ([1]; Table 11, 4% sucrose alone): 3.9
- Average sweetness score (line scale 0 to 15) ([1]; Table 11, 6% sucrose alone): 5.7
- Average sweetness score (line scale 0 to 15) ([1]; Table 12, 6% sucrose alone): 6.8
- Average sweetness score (line scale 0 to 15) ([1]; Table 12, 8% sucrose alone): 8.3
- Average sweetness score (line scale 0 to 15) ([1]; Table 12, 9% sucrose alone): 8.6
- Average sweetness score (line scale 0 to 15) ([1]; Table 12, 10% sucrose alone): 9.5
- Average sweetness score (line scale 0 to 15) ([1]; Table 13, 2% sucrose alone): 1.9
- Average sweetness score (line scale 0 to 15) ([1]; Table 13, 4% sucrose alone): 3.9
- Average sweetness score (line scale 0 to 15) ([1]; Table 13, 6% sucrose alone): 5.5
- Average sweetness score (line scale 0 to 15) ([1]; Table 14, 6% sucrose alone): 6.5
- Average sweetness score (line scale 0 to 15) ([1]; Table 14, 8% sucrose alone): 8.5
- Average sweetness score (line scale 0 to 15) ([1]; Table 14, 9% sucrose alone): 8.7
- Average sweetness score (line scale 0 to 15) ([1]; Table 14, 10% sucrose alone): 9.7
- Average sweetness score (line scale 0 to 15) ([1]; Table 15, 6% sucrose alone): 7.0
- Average sweetness score (line scale 0 to 15) ([1]; Table 15, 8% sucrose alone): 8.4
- Average sweetness score (line scale 0 to 15) ([1]; Table 15, 9% sucrose alone): 9.0
- Average sweetness score (line scale 0 to 15) ([1]; Table 15, 10% sucrose alone): 9.1
- Average sweetness score (line scale 0 to 15) ([1]; Table 16, 2% sucrose alone): 2.0
- Average sweetness score (line scale 0 to 15) ([1]; Table 16, 4% sucrose alone): 4.1
- Average sweetness score (line scale 0 to 15) ([1]; Table 16, 6% sucrose alone): 5.7
- Average sweetness score (line scale 0 to 15) ([1]; Table 18, 2% sucrose alone): 2.4
- Average sweetness score (line scale 0 to 15) ([1]; Table 18, 4% sucrose alone): 4.2
- Average sweetness score (line scale 0 to 15) ([1]; Table 18, 6% sucrose alone): 5.9
- Average sweetness score (line scale 0 to 15) ([1]; Table 19, 6% sucrose alone): 7.3
- Average sweetness score (line scale 0 to 15) ([1]; Table 19, 8% sucrose alone): 8.6
- Average sweetness score (line scale 0 to 15) ([1]; Table 19, 9% sucrose alone): 9.1
- Average sweetness score (line scale 0 to 15) ([1]; Table 19, 10% sucrose alone): 9.7
- Average sweetness score (line scale 0 to 15) ([1]; Table 20, 2% sucrose alone): 8.6
- Average sweetness score (line scale 0 to 15) ([1]; Table 20, 4% sucrose alone): 9.1
- Average sweetness score (line scale 0 to 15) ([1]; Table 20, 6% sucrose alone): 9.7
- Average sweetness score (line scale 0 to 15) ([1]; Table 21, 6% sucrose alone): 6.5
- Average sweetness score (line scale 0 to 15) ([1]; Table 21, 8% sucrose alone): 8.3
- Average sweetness score (line scale 0 to 15) ([1]; Table 21, 9% sucrose alone): 9.4
- Average sweetness score (line scale 0 to 15) ([1]; Table 21, 10% sucrose alone): 9.4
- Average sweetness score (line scale 0 to 15) ([1]; Table 22, 6% sucrose alone): 6.5
- Average sweetness score (line scale 0 to 15) ([1]; Table 22, 8% sucrose alone): 8.2
- Average sweetness score (line scale 0 to 15) ([1]; Table 22, 9% sucrose alone): 9.2
- Average sweetness score (line scale 0 to 15) ([1]; Table 22, 10% sucrose alone): 9.4
- Average sweetness score (line scale 0 to 15) ([1]; Table 23, 6% sucrose alone): 6.8
- Average sweetness score (line scale 0 to 15) ([1]; Table 23, 8% sucrose alone): 8.7
- Average sweetness score (line scale 0 to 15) ([1]; Table 23, 9% sucrose alone): 9.5
- Average sweetness score (line scale 0 to 15) ([1]; Table 23, 10% sucrose alone): 9.5
- Average sweetness score (line scale 0 to 15) ([1]; Table 24, 6% sucrose alone): 6.5
- Average sweetness score (line scale 0 to 15) ([1]; Table 24, 8% sucrose alone): 8.4
- Average sweetness score (line scale 0 to 15) ([1]; Table 24, 9% sucrose alone): 9.2
- Average sweetness score (line scale 0 to 15) ([1]; Table 24, 10% sucrose alone): 9.4
- Average sweetness score (line scale 0 to 15) ([1]; Table 25, 6% sucrose alone): 6.7
- Average sweetness score (line scale 0 to 15) ([1]; Table 25, 8% sucrose alone): 8.1
- Average sweetness score (line scale 0 to 15) ([1]; Table 25, 9% sucrose alone): 9.3
- Average sweetness score (line scale 0 to 15) ([1]; Table 25, 10% sucrose alone): 9.2
- Average Sweetness ([1]; Table 26, 6% Sucrose alone, n = 24): 6.2
- Average Sweetness ([1]; Table 26, 8% Sucrose alone, n = 24): 8.3
- Average Sweetness ([1]; Table 26, 9% Sucrose alone, n = 24): 9.3
- Average Sweetness ([1]; Table 26, 10% Sucrose alone, n = 24): 9.8
- Average Sweetness ([1]; Table 26, 12% Sucrose alone, n = 24): 11.1
- Average Sweetness ([1]; Table 27, 6% Sucrose alone, n = 30): 6.7
- Average Sweetness ([1]; Table 27, 8% Sucrose alone, n = 30): 8.3
- Average Sweetness ([1]; Table 27, 10% Sucrose alone, n = 30): 10.3
- Average Sweetness ([1]; Table 27, 12% Sucrose alone, n = 30): 11.2
- Average Sweetness ([1]; Table 30, 2% Sucrose alone, n = 30): 2.3
- Average Sweetness ([1]; Table 30, 4% Sucrose alone, n = 30): 4.2
- Average Sweetness ([1]; Table 30, 6% Sucrose alone, n = 30): 5.8
- Average Sweetness ([1]; Table 31, 6% Sucrose alone, n = 28): 6.8
- Average Sweetness ([1]; Table 31, 8% Sucrose alone, n = 28): 8.5
- Average Sweetness ([1]; Table 31, 9% Sucrose alone, n = 28): 8.6
- Average Sweetness ([1]; Table 31, 10% Sucrose alone, n = 28): 9.6
- Average Sweetness ([1]; Table 32, 2% Sucrose alone, n = 28): 2.3
- Average Sweetness ([1]; Table 32, 4% Sucrose alone, n = 28): 4.5
- Average Sweetness ([1]; Table 32, 6% Sucrose alone, n = 28): 5.8
